Reference: patent US9408906B2, “Peptide particle formulation” (FLOW PHARMA, INC., priority 2010, dated 2016)

Test system: Mature dendrocytes mixed with T-Lymphocytes
Experiment: Antigen presentation and T cell stimulation: production of human γ-IFN measured by ELISA
Type: cell-based
Conditions: human γ-IFN production after 2 hours incubation; HLA-A02 CMV-exposed donor PBMC-derived dendrocytes + T-lymphocytes; free peptide at 10^−9 M or 15 micron PLGA microspheres with approximately 2% NLVPMVATV
Source text: Preparation of Dendritic Cells from peripheral blood mononuclear cells (PBMC). Frozen PBMC cells were obtained from Cellular Technology Limited, from volunteer donors known to have been exposed to CMV, and to be HLA-A02. The volunteer's antigen presenting cells were known to be capable of presenting HCMV pp 65 (NLVPMVATV) CMV epitope to T lymphocytes. Human PBMC (Peripheral Blood Mononuclear Cells) isolated from leukopacks and frozen in serum-free CTL-Cryo™ medium. These leukopacks were ethically collected from healthy donors tested for: HBsAg, HBcAb, HCV, HTLV I/II, and STS by serology; as well as HIV I, HCV, and WNV by NAT.
Cells were thawed and plated at a concentration of 1×10^5 monocytes/well of a 24-well plate in medium supplemented with GM-CSF at a final concentration of 50 ng/ml and IL-4 at a final concentration of 100 ng/ml. Cells were maintained in culture at 37° C./5% CO2 for 6 days; and used with 8 days after that point. Optical microscopy confirmed maturation of monocytes to dendrocytes capable of phagocytosis of 15 micron PLGA microspheres.
Presentation of antigen and stimulation of T cells was assessed by production of human γ-IFN, measured by ELISA. […] Production of γ-IFN was measured after 2 hours.

NLVPMVATV [free peptide]
ELISA Optical Density: 0.612
